Values of other authors as cited in patent publication US20070232537A1, “INTRANASAL PYY FORMULATIONS WITH IMPROVED TRANSMUCOSAL PHARMACOKINETICS” (Nastech Pharmaceutical Company Inc., priority 2005, published 2007).

Key:
[1] = anesthetized rats; increased from 7.5
[2] = aqueous solution at physiologic pH

## 2-alkyl-4-hydroxyquinolines [pyo compound]
Ciliary motility
  concentration producing ciliostasis / inhibiting ciliary motility: 50 µg/mL

## CC(=O)N[C@@H](CS)C(=O)O [N-acetyl-L-cysteine]
[1]
  nasal bioavailability of human growth hormone: 12.2%

## CC(C)CC(N)B(O)O (stereo not drawn) [boro-leucine]
aminopeptidases
  times more effective in enzyme inhibition than bestatin: more than 100 times
  times more effective in enzyme inhibition than puromycin: more than 1000 times

## CCN(CC)/[N+]([O-])=N/O.CCNCC [diethylamine/NO]
[2]
  NO release rate (time): < 3 min

## NCCN(CCN)/[N+]([O-])=N/O [diethylenetriamine/NO]
[2]
  NO release rate (time): approximately 20 hours
